From EP3818828A1 (priority 2019, dated 2021)

Experiments:
[1] = tested on: Phytophthora infestans; format: cell-based; details: Phytophthora infestas; 1 mg/mL
[2] = tested on: zucchini, cucumber, flax, and tomato; assay: Crop safety in the field efficiency tests; format: in vivo; details: at the test doses
Description: (§1) The variety of zucchini was Zaoqing F1 (manufactured by Wuwei Dadi Seed Industry Co., Ltd.), which was sown on July 29th, 2016. The first application was started on August 26th, at the early onset of powdery mildew (the average disease index is 10.07). The instrument for application was Agrolex HD 400 Model hand operating knapsack sprayer, which employed a cone nozzle. Each agent was formulated into the desired concentrations according to the usage amount of the control clear water. Both sides of the leaves were sprayed evenly so that the leaves were wetted by the liquor without loss. 10% of 3-(3',4'-methylenedioxy phenyl)-N-n-propyl acrylamide EC and 14% of 3-(3',4'-methylenedioxy phenyl)-piperidine acrylate EC were both diluted at a concentration of 0.50 mg/mL (active ingredients); the control agent, 430 g/L of tebuconazole SC (manufactured by Yantai Keda Chemical Co., Ltd.) was also diluted at a concentration of 0.50 mg/mL (active ingredients); additionally clear water was used as the control. Thereafter, applications were conducted every 7 days consecutively for 4 times. 10 days after the last application, the number of sick leaves at each grade of powdery mildew was investigated for the whole plant following the grading standard of 9 grades, to calculate the disease index and the control effect.
The variety of flax is Zhangya No. 2. […]

[3] = tested on: E. polygoni; assay: In-vivo greenhouse control of marrow bean powdery mildew
Description: 3.88 g of 3-(3',4'-methylenedioxy phenyl)-N-n-propyl acrylamide was weighed and dissolved in 25 g of absolute ethyl alcohol, then 6 g of emulsifier 0203B was added, and mixed uniformly with stirring to get 10% of 3-(3',4'-methylenedioxy phenyl)-N-n-propyl acrylamide EC.
5.61 g of 3-(3',4'-methylenedioxy phenyl)-piperidine acrylate was weighed and dissolved in 25 g of absolute ethyl alcohol, then 6 g of emulsifier 0203B was added, and mixed uniformly with stirring to get 14% of 3-(3',4'-methylenedioxy phenyl)-piperidine acrylate EC.
Marrow bean (Variety: Thailand Jiadouwang) was cultured in pots in a greenhouse, and inoculated with E. polygoni at the stage of 4 leaves. The first application was started at the early onset (onset at the first true leaf: first appearance of spots), comprising 10% of 3-(3',4'-methylenedioxy phenyl)-N-n-propyl acrylamide EC and 14% of 3-(3',4'-methylenedioxy phenyl)-piperidine acrylate EC, which were both diluted at three concentrations of 0.20, 0.143, 0.10 mg/mL (active ingredients), the control agent, 12.5% of myclobutanil EC (North China pharmaceutical Group, Ainuo Co. Ltd.), was also diluted at three concentrations of 0.20, 0.143, 0.10 mg/mL (active ingredients), additionally clear water was used as the control. Both sides of the leaves were sprayed evenly with a small hand-held sprayer so that the leaves were wetted by the liquor without loss. Applications were conducted every 7 days consecutively for 4 times. 10 days after the fourth application, the number of sick leaves at each grade of powdery mildew was investigated for the whole plant following the grading standard of 9 grades, to calculate the disease index and the control effect.

[4] = tested on: Pythium ultimum; assay: Supplementary ex vivo determination of antifungal activity; format: cell-based; details: compared with carbendazim
Description: The inhibition of samples for testing on the mycelial growth of plant pathogenic fungi for testing is determined with a growth rate method. 3-(3',4'-methylenedioxy phenyl)-N-n-propyl acrylamide, 3-(3',4'-methylenedioxy phenyl)-piperidine acrylate and five control agents are dissolved with dimethyl sulfoxide (DMSO), then formulated at 5-7 concentrations of different gradients for test following the trial test results, with the same concentration of DMSO as the control solvent, each treatment in triplicate. Fungal cakes with a diameter of 4 mm are taken from the edge of the colony, inoculated into the center of a PDA plate containing different agents of different concentrations and the DMSO control, with one piece of fungal cake inoculated in each plate (with a diameter of […]), and incubated in a constant temperature incubator at a temperature of 22±1.5°C. 7 days later (10-20 days may be needed for some pathogenic fungi), the diameter of the colony is measured with a cross over method according to the mycelial growth profile of the control pathogenic fungi, then the inhibition rate of mycelial growth is calculated.

[5] = tested on: Oidium lini; assay: Field efficiency test, flax powdery mildew; format: in vivo; details: 0.50 mg/mL (active ingredients)
Description: (§2) The formulation of emulsifiable concentrate is the same as that in Embodiment 3.
The variety of flax is Zhangya No. 2. 10% of 3-(3',4'-methylenedioxy phenyl)-N-n-propyl acrylamide EC and 14% of 3-(3',4'-methylenedioxy phenyl)-piperidine acrylate EC were both diluted at a concentration of 0.50 mg/mL (active ingredients); the control agent, 430 g/L of tebuconazole SC, was also diluted at a concentration of 0.50 mg/mL (active ingredients); additionally clear water was used as the control. The first application was started at the first appearance of spots for flax powdery mildew (Oidium lini) (natural incidence), and the second application was carried out 10 days later. The instrument for application was a WS-18D knapsack electric sprayer, which employed a cone nozzle. Each agent was formulated into the desired concentrations according to the usage amount of the control clear water. Both sides of the leaves were sprayed evenly. 10 days after the second application, the number of sick leaves at each grade of powdery mildew was investigated for the whole plant following the grading standard of 9 grades, to calculate the disease index and the control effect.

[6] = tested on: F. graminearum; assay: microbe, parasite or virus in culture; format: cell-based; details: for Average Diameter of the Colony: F. graminearum, 1 mg/mL; for inhibition at 1000 µg/mL: Fusarium graminearum, read-out: Inhibition Rate
[7] = tested on: zucchini powdery mildew; assay: Field efficiency test, zucchini powdery mildew; format: in vivo; details: 0.50 mg/mL (active ingredients)
Description: as §2, §1

[8] = 0.10 mg/mL (active ingredients)
[9] = 0.143 mg/mL (active ingredients)
[10] = 0.20 mg/mL (active ingredients)

| Compound | Average Diameter of the Colony [1] [cm] | safety for zucchini, cucumber, flax, and tomato [2] | Control Effect [3, 8] [%] | Control Effect [3, 9] [%] | Control Effect [3, 10] [%] | antifungal activity against Pythium ultimum [4] | Control Effect [5] [%] | Average Diameter of the Colony [6] [cm] | inhibition at 1000 µg/mL [6] [%] | Control Effect [7] [%] |
| --- | --- | --- | --- | --- | --- | --- | --- | --- | --- | --- |
| O=C(/C=C/c1ccc2c(c1)OCO2)N1CCCCC1 [3-(3',4'-methylenedioxyphenyl)-piperidine acrylate] | 0.81 | safe for zucchini, cucumber, flax, and tomato | 74.97 | 89.40 | 91.55 | superior to that of the control agent, carbendazim | 41.82 | 0.00 | 100 | 30.04 |
| CCCNC(=O)/C=C/c1ccc2c(c1)OCO2 [3-(3',4'-methylenedioxyphenyl)-N-n-propyl acrylamide] | 2.05 | safe for zucchini, cucumber, flax, and tomato | 84.19 | 92.58 | 93.53 | superior to that of the control agent, carbendazim | 83.70 | 3.49 | 59.4 | 60.24 |
